The subject of this test is L1210 leukemia ip in BDF1 mice, survival T/C. Description: NCI In Vivo Anticancer Drug Screen. Data for tumor model L1210 Leukemia (intraperitoneal) in B6D2F1 (BDF1) mice. The following applies: endpoint: mean survival time, higher = longer survival. The method, boiled down: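 Transplanted-tumor mice were given test agent; controls received vehicle only. Survival readings from the two groups were divided (treated over control).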

Setting [1] is: dose: 100.0 mg/kg/injection, schedule: Q01DX009 (ip), vehicle: Klucel (hydroxypropylcellulose) (HPC).
Where [2] appears, read: dose: 200.0 mg/kg/injection, schedule: Q01DX009 (ip), vehicle: Klucel (hydroxypropylcellulose) (HPC).
[3] abbreviates: dose: 400.0 mg/kg/injection, schedule: Q01DX009 (ip), vehicle: Klucel (hydroxypropylcellulose) (HPC).
Setting [4] is: dose: 100.0 mg/kg/injection, schedule: Q04DX003 (ip), vehicle: saline with Tween-80.
Where [5] appears, read: dose: 200.0 mg/kg/injection, schedule: Q04DX003 (ip), vehicle: saline with Tween-80.
Where [6] appears, read: dose: 400.0 mg/kg/injection, schedule: Q04DX003 (ip), vehicle: saline with Tween-80.
Setting [7] is: dose: 100.0 mg/kg/injection, schedule: Q01DX001 (ip), vehicle: saline.
[8] abbreviates: dose: 200.0 mg/kg/injection, schedule: Q01DX001 (ip), vehicle: saline.
Setting [9] is: dose: 400.0 mg/kg/injection, schedule: Q01DX001 (ip), vehicle: saline.
[10] abbreviates: dose: 50.0 mg/kg/injection, schedule: Q01DX001 (ip), vehicle: carboxymethylcellulose (CMC).
The mark [11] stands for this setting: dose: 100.0 mg/kg/injection, schedule: Q01DX001 (ip), vehicle: carboxymethylcellulose (CMC).
The mark [12] stands for this setting: dose: 200.0 mg/kg/injection, schedule: Q01DX001 (ip), vehicle: carboxymethylcellulose (CMC).
Setting [13] is: dose: 400.0 mg/kg/injection, schedule: Q01DX001 (ip), vehicle: carboxymethylcellulose (CMC).
The mark [14] stands for this setting: dose: 100.0 mg/kg/injection, schedule: Q04DX003 (ip), vehicle: Klucel (hydroxypropylcellulose) (HPC).
Setting [15] is: dose: 200.0 mg/kg/injection, schedule: Q04DX003 (ip), vehicle: Klucel (hydroxypropylcellulose) (HPC).
The mark [16] stands for this setting: dose: 400.0 mg/kg/injection, schedule: Q04DX003 (ip), vehicle: Klucel (hydroxypropylcellulose) (HPC).

“And” between values parts separate entries of the source, which are not always exact repeats. Equal entries are not always repeated. Inconclusive results and toxic doses are left out.

Take `O=C(N/N=C/c1cccnc1)c1ccc(O)cc1`: the T/C runs as follows: under setting [1], 91 % of control; under setting [2], 96 % of control; under setting [3], 94 % of control.
With `CC(=O)c1cccc(NC(=O)Nc2ccc(CCO)cc2)c1`, the T/C is, setting by setting: under setting [1], 95 % of control; under setting [2], 95 % of control; under setting [3], 100 % of control.
As to `CCOC(=O)CC(C)(O)C1CC1` (stereo unspecified), the T/C under setting [4] is 98 % of control, the T/C under setting [5] is 96 % of control and the T/C under setting [6] is 98 % of control.
Consider `CC12NC(=O)NC(=O)N1CCS2` (stereo unspecified), for which the T/C is, setting by setting: (dose: 50.0 mg/kg/injection, schedule: Q01DX001 (ip), vehicle: saline) 100 % of control; under setting [7], 106 % of control; under setting [8], 102 % of control; under setting [9], 100 % of control.
With `CC1(C)C(=O)C=C(N2CCCCC2)c2ccccc21`, the T/C under setting [4] is 101 % of control, the T/C under setting [5] was 98 % of control and the T/C under setting [6] was 97 % of control.
For `O=S1(=O)C(Cl)(Cl)SC(Cl)(Cl)S(=O)(=O)C1(Cl)Cl`, the T/C by setting is: (dose: 12.5 mg/kg/injection, schedule: Q01DX009 (ip), vehicle: saline) 101 % of control; (dose: 25.0 mg/kg/injection, schedule: Q01DX009 (ip), vehicle: saline) 93 % of control; (dose: 50.0 mg/kg/injection, schedule: Q01DX009 (ip), vehicle: saline) 101 % of control; (dose: 50.0 mg/kg/injection, schedule: Q04DX003 (ip), vehicle: saline) 93 % of control; under setting [7], 96 % of control; under setting [8], 98 % of control.
`COc1ccc2nccc(C=O)c2c1`: the T/C under setting [10] was 108 % of control; the T/C under setting [11] is 102 % of control; the T/C (dose: 100.0 mg/kg/injection, schedule: Q01DX009 (ip), vehicle: saline with Tween-80) was 101 % of control; the T/C under setting [12] is 102 % of control; the T/C (dose: 200.0 mg/kg/injection, schedule: Q01DX009 (ip), vehicle: saline with Tween-80) was 95 % of control; the T/C under setting [5] was 101 % of control. In addition, the T/C reads like this: under setting [13], 96 % of control; under setting [6], 89 % of control.
Turning to `CCCCCCCCCCCCCCCCCC(=O)N/N=C/C(C=C=C(C)C)(CC)CCCC` (stereo unspecified), the T/C was 101 % of control under setting [1], 96 % of control under setting [2] and 96 % of control under setting [3].
Consider `CCS(=O)(=O)C(CCC(S(=O)(=O)CC)S(=O)(=O)CC)S(=O)(=O)CC`, for which the T/C is 110 % of control under setting [7], 96 % of control under setting [8] and 102 % of control under setting [9].
For the compound `COc1cc(C(=O)CCC(=O)O)cc(OC)c1OC`, the T/C is, setting by setting: under setting [1], 96 % of control; under setting [14], 96 % of control; under setting [2], 104 % of control; under setting [15], 102 % of control; under setting [3], 102 % of control; under setting [16], 93 % of control.
On to `Cc1ccc(S(=O)(=O)OC23CCC(C)(CC2)C(=O)C3)cc1`, for which the T/C was 91 % of control (dose: 100.0 mg/kg/injection, schedule: Q04DX002 (ip), vehicle: saline); 102 % of control (dose: 200.0 mg/kg/injection, schedule: Q04DX002 (ip), vehicle: saline); 91 % of control (dose: 400.0 mg/kg/injection, schedule: Q04DX002 (ip), vehicle: saline).
For `O=C1C2C3CCC(O3)C2C(=O)N1CCOS(=O)(=O)c1ccc(Cl)cc1` (stereo unspecified), the T/C reads like this: (dose: 75.0 mg/kg/injection, schedule: Q01DX009 (ip), vehicle: carboxymethylcellulose (CMC)) 93 % of control; (dose: 100.0 mg/kg/injection, schedule: Q04DX003 (ip), vehicle: carboxymethylcellulose (CMC)) 100 % of control; (dose: 150.0 mg/kg/injection, schedule: Q01DX009 (ip), vehicle: carboxymethylcellulose (CMC)) 94 % of control; (dose: 200.0 mg/kg/injection, schedule: Q04DX003 (ip), vehicle: carboxymethylcellulose (CMC)) 102 % of control; (dose: 300.0 mg/kg/injection, schedule: Q01DX009 (ip), vehicle: carboxymethylcellulose (CMC)) 91 % of control; (dose: 400.0 mg/kg/injection, schedule: Q04DX003 (ip), vehicle: carboxymethylcellulose (CMC)) 96 % of control.
Turning to `CC1CN1c1cc(O)c(N2CC2C)cc1O` (stereo unspecified), the T/C reads like this: (dose: 0.25 mg/kg/injection, schedule: Q01DX009 (ip), vehicle: saline) 100 % of control; (dose: 0.5 mg/kg/injection, schedule: Q01DX009 (ip), vehicle: saline) 92 % of control; (dose: 0.5 mg/kg/injection, schedule: Q01DX Z (ip), vehicle: methylcellulose (MC)) 110 % of control; (dose: 0.8 mg/kg/injection, schedule: Q01DX Z (ip), vehicle: methylcellulose (MC)) 111 % of control; (dose: 1.0 mg/kg/injection, schedule: Q01DX009 (ip), vehicle: saline) 118 % of control; (dose: 1.2 mg/kg/injection, schedule: Q01DX Z (ip), vehicle: carboxymethylcellulose (CMC)) 115 % of control. In addition, the T/C (dose: 1.2 mg/kg/injection, schedule: Q01DX Z (ip), vehicle: methylcellulose (MC)) was 109 % of control and 123 % of control; the T/C (dose: 1.8 mg/kg/injection, schedule: Q01DX Z (ip), vehicle: carboxymethylcellulose (CMC)) was 121 % of control; the T/C (dose: 2.0 mg/kg/injection, schedule: Q01DX009 (ip), vehicle: saline) is 118 % of control; the T/C (dose: 2.7 mg/kg/injection, schedule: Q01DX Z (ip), vehicle: methylcellulose (MC)) was 171 % of control; the T/C (dose: 4.0 mg/kg/injection, schedule: Q01DX Z (ip), vehicle: carboxymethylcellulose (CMC)) was 120 % of control; the T/C (dose: 4.0 mg/kg/injection, schedule: Q01DX Z (ip), vehicle: methylcellulose (MC)) was 109 % of control and 155 % of control and 212 % of control. Further, the T/C by setting is: (dose: 5.0 mg/kg/injection, schedule: Q01DX009 (ip), vehicle: saline) 150 % of control; (dose: 6.0 mg/kg/injection, schedule: Q01DX Z (ip), vehicle: carboxymethylcellulose (CMC)) 108 % of control; (dose: 6.0 mg/kg/injection, schedule: Q01DX Z (ip), vehicle: methylcellulose (MC)) 172 % of control and 180 % of control; (dose: 9.0 mg/kg/injection, schedule: Q01DX Z (ip), vehicle: methylcellulose (MC)) 155 % of control and 174 % of control; (dose: 10.0 mg/kg/injection, schedule: Q01DX009 (ip), vehicle: saline) 121 % of control; (dose: 13.5 mg/kg/injection, schedule: Q01DX Z (ip), vehicle: methylcellulose (MC)) 114 % of control. The T/C is 101 % of control (dose: 20.0 mg/kg/injection, schedule: Q01DX009 (ip), vehicle: saline) and 90 % of control (dose: 20.0 mg/kg/injection, schedule: Q01DX Z (ip), vehicle: methylcellulose (MC)).
Consider `CSc1ccccc1C(=O)O`, for which the T/C by setting is: under setting [10], 100 % of control; under setting [11], 100 % of control; under setting [1], 97 % of control; under setting [14], 103 % of control; under setting [12], 94 % of control; under setting [2], 95 % of control. The T/C under setting [15] is 94 % of control, the T/C under setting [13] is 96 % of control, the T/C under setting [3] is 100 % of control and the T/C under setting [16] was 110 % of control.
As to `CN(C)C(=S)SC(=S)N(C)C`, the T/C was 106 % of control (dose: 25.0 mg/kg/injection, schedule: Q04DX002 (ip), vehicle: Klucel (hydroxypropylcellulose) (HPC)); 100 % of control (dose: 50.0 mg/kg/injection, schedule: Q04DX002 (ip), vehicle: Klucel (hydroxypropylcellulose) (HPC)); 89 % of control (dose: 100.0 mg/kg/injection, schedule: Q04DX002 (ip), vehicle: Klucel (hydroxypropylcellulose) (HPC)); 91 % of control (dose: 200.0 mg/kg/injection, schedule: Q04DX002 (ip), vehicle: Klucel (hydroxypropylcellulose) (HPC)); 98 % of control (dose: 400.0 mg/kg/injection, schedule: Q04DX002 (ip), vehicle: Klucel (hydroxypropylcellulose) (HPC)).

These data come from PubChem BioAssay AID248 (DTP/NCI, 2004).
